Results: PMC6009895, “Screening assay for inhibitors of a recombinant Streptococcus pneumoniae UDP-glucose pyrophosphorylase” (Journal of Enzyme Inhibition and Medicinal Chemistry, 2017)

Target: T1, His6GalUSpn (UDP-glucose pyrophosphorylase, UDPG:PP, GalU) (Streptococcus pneumoniae, UniProt O86882)
T1 construct: complete galU gene amplified from plasmid pMMG2 into pET28a (NheI/BamHI; pETgalU), His6 tag before the protein, tag cut not mentioned; E. coli BL21(DE3), IMAC
Assay: malachite green Pi assay coupled to inorganic pyrophosphatase
Format: biochemical
Conditions: 30 min preincubation at 37 °C with 7.5 mM compound; 7.5 mM UTP, 7.5 mM Glc-1P, 5 mM MgCl2, MOPS pH 8.0, 37 °C

T1 sequence (O86882 entry or part of it): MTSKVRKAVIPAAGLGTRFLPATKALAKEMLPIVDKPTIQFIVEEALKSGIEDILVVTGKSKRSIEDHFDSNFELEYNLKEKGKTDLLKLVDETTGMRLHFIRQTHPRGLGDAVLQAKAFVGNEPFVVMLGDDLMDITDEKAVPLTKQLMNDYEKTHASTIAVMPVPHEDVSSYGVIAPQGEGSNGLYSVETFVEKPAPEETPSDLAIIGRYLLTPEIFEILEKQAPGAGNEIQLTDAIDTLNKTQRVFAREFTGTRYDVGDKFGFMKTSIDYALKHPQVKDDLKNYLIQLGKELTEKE

Row | SMILES | % inhibition at 7.5 mM
1 | Cc1cn([C@H]2C[C@H](N=[N+]=[N-])[C@@H](CO)O2)c(=O)[nH]c1=O [zidovudine] | nucleoside analogs: abacavir, decitabine stavudine and zidovudine
2 | Cc1cn([C@H]2C=C[C@@H](CO)O2)c(=O)[nH]c1=O [stavudine] | nucleoside analogs: abacavir, decitabine stavudine and zidovudine
3 | Nc1nc(NC2CC2)c2ncn([C@H]3C=C[C@@H](CO)C3)c2n1 [abacavir] | inhibit S. pneumoniae UDP-glucose pyrophosphorylase, including compounds containing a purine base in their structure
